Laboratory results reported in US10316056B2, “Chemical compounds and use thereof for improving muscular quality” (BIOPHYTIS, priority 2014, dated 2019).

Test system: myostatin gene expression in C2C12 cells
Experiment: Inhibition of myostatin expression in C2C12 cells (qPCR)
Type: cell-based
Conditions: Mus musculus, percentage myostatin gene expression in cells in contact with the compounds related to control cells, C2C12, 6 h
Procedure: After several experiments in which the C2C12 cells differentiated into myotubes were incubated in the presence of IGF-1 or 20E for 2 h 30 or 6 h, two screening tests were developed. Thus, the phosphorylation of the S6 protein kinase and the expression of the myostatin gene were studied in order to determine their modulation by a growth hormone or an ecdysone and to characterize these modulations from a statistical point of view. The C2C12 myoblast cells (ATCC CRL-1772) are seeded into 24-well plates at a density of 30 000 cells per well and cultured in a DMEM medium containing glucose in a proportion of 4.5 g/l and supplemented with fetal calf serum (10%) and with antibiotics (penicillin and streptomycin). Forty-eight hours later, the myoblasts are induced to differentiate by partial serum depletion (2% instead of 10%) for 5 days. The cells are then placed in a medium which is glucose-depleted (DMEM containing 1 g/l of glucose) and serum-free in the presence of the test molecules or of the references (100 ng/ml IGF-1 or 10 μ[…]) for 6 h. At the end of the experiment, the messenger RNAs (mRNAs) are extracted using the conventional methodology based on phenol and chloroform. Briefly, the cells are lysed in a Trizol solution (Sigma T9424) containing a strong acid and phenol. The mRNAs are separated from the proteins by addition of chloroform and then centrifugation. They are then precipitated from isopropanol and then suspended at a concentration of 1 μg/μl in an […] ultrapure water. 1 μg of mRNA is then converted by reverse transcription into complementary DNA by the AMV enzyme in the presence of a primer and of a mixture of nucleotides according to the protocol given by the supplier (Applied Biosystems 4368814). […] The qPCRs are carried out on a 7900HT Fast real-Time PCR detection system (Applied Biosystems). The programming conditions are standard and consist of 1 cycle at 95° C. for 15 min, followed by 40 cycles at 95° C. for 15 s and at 60° C. for 1 min and the program ends with a melt curve step between 60° C. and 95° C. […] Fluorescent probes bind to the double-stranded DNA and are fluorescent only once bound to the DNA. A fluorescence threshold is established by the machine's program. When the amount of DNA allows the fluorescent probe to exceed this threshold, a PCR cycle number, called “Ct” for “Cycle Threshold”, is obtained. It is this value which forms the basis of the calculations to quantify the DNA relatively. A ratio R is established between the amount of starting DNA of a sample and that of a control, which has not undergone treatment (i.e. […] R=2^-ΔΔCt).

Row | SMILES | mrna remaining at 10 µM [%]
1 | COCCN(C(=O)c1cccs1)C(C)[C@H]1CC[C@@]2(O)C3=CC(=O)[C@@H]4C[C@@H](O)[C@@H](O)C[C@]4(C)C3CC[C@]12C (stereo partly drawn) [Compound 53, N-(2-methoxyethyl)-N-[1-[(2S,3R,5R,10R,13R,14S,17S)-2,3,14-trihydroxy-10,13-dimethyl-6-oxo-2,3,4,5,9,11,12,15,16,17-decahydro-1H-cyclopenta[a]phenanthren-17-yl]ethyl]thiophene-2-carboxamide] | < 70
2 | COCCO/N=C(/C)[C@H]1CC[C@@]2(O)C3=CC(=O)[C@@H]4C[C@@H](O)[C@@H](O)C[C@]4(C)C3CC[C@]12C (stereo partly drawn) [Compound 29, (2S,3R,5R,10R,13R,14S,17S)-2,3,14-trihydroxy-17-(N-(2-methoxyethoxy)-C-methylcarbonimidoyl)-10,13-dimethyl-2,3,4,5,9,11,12,15,16,17-decahydro-1H-cyclopenta[a]phenanthren-6-one] | < 70
3 | COCCN(C(=O)N1CCOCC1)C(C)[C@H]1CC[C@@]2(O)C3=CC(=O)[C@@H]4C[C@@H](O)[C@@H](O)C[C@]4(C)C3CC[C@]12C (stereo partly drawn) [Compound 57, N-(2-methoxyethyl)-N-[1-[(2S,3R,5R,10R,13R,14S,17S)-2,3,14-trihydroxy-10,13-dimethyl-6-oxo-2,3,4,5,9,11,12,15,16,17-decahydro-1H-cyclopenta[a]phenanthren-17-yl]ethyl]morpholine-4-carboxamide] | 71 to 85
4 | C/C(=N/OCCOc1ccccc1)[C@H]1CC=C2C3=CC(=O)[C@@H]4C[C@@H](O)[C@@H](O)C[C@]4(C)C3CC[C@@]21C (stereo partly drawn) [Compound 33, (2S,3R,5R,10R,13R,17S)-2,3-dihydroxy-10,13-dimethyl-17-(C-methyl-N-(2-phenoxyethoxy)carbonimidoyl)-1,2,3,4,5,9,11,12,16,17-decahydrocyclopenta[a]phenanthren-6-one] | < 70
5 | CO/N=C1\C=C2C(CC[C@]3(C)[C@@H](/C(CN4CCOCC4)=N\OC)CC[C@@]23O)[C@@]2(C)C[C@H](O)[C@H](O)C[C@@H]12 (stereo partly drawn) [Compound 101, (2S,3R,5R,6E,10R,13R,14S,17S)-6-methoxyimino-17-(N-methoxy-C-(morpholinomethyl)carbonimidoyl)-10,13-dimethyl-2,3,4,5,9,11,12,15,16,17-decahydro-1H-cyclopenta[a]phenanthrene-2,3,14-triol] | < 70
6 | C[C@]12C[C@H](O)[C@H](O)C[C@H]1C(=O)C=C1C2CC[C@]2(C)[C@@H](C(O)CN3CCC(CCO)CC3)CC[C@@]12O (stereo partly drawn) [Compound 99, (2S,3R,5R,10R,13R,14S,17S)-2,3,14-trihydroxy-17-[1-hydroxy-2-[4-(2-hydroxyethyl)-1-piperidyl]ethyl]-10,13-dimethyl-2,3,4,5,9,11,12,15,16,17-decahydro-1H-cyclopenta[a]phenanthren-6-one] | < 70
7 | CC(C)=CCON=C(C)[C@H]1CC[C@@]2(O)C3=C/C(=N\O)[C@@H]4C[C@@H](O)[C@@H](O)C[C@]4(C)C3CC[C@]12C (stereo partly drawn) [Compound 21, (2S,3R,5R,10R,13R,14S,17S)-2,3,14-trihydroxy-10,13-dimethyl-17-(C-methyl-N-(3-methylbut-2-enoxy)carbonimidoyl)-2,3,4,5,9,11,12,15,16,17-decahydro-1H-cyclopenta[a]phenanthren-6-one oxime] | < 70
8 | CO/N=C1/C=C2C3=CC[C@H](C(C)=NO)[C@@]3(C)CCC2[C@@]2(C)C[C@H](O)[C@H](O)C[C@@H]12 (stereo partly drawn) [Compound 7, 1-[(2S,3R,5R,6Z,10R,13R,17S)-2,3-dihydroxy-6-methoxyimino-10,13-dimethyl-1,2,3,4,5,9,11,12,16,17-decahydrocyclopenta[a]phenanthren-17-yl]ethanone oxime] | < 70
9 | CCON=C(C)[C@H]1CCC2C3=CC(=O)[C@@H]4C[C@@H](O)[C@@H](O)C[C@]4(C)C3CC[C@@]21C (stereo partly drawn) [Compound 5, (2S,3R,5R,10R,13S,17S)-17-(N-ethoxy-C-methylcarbonimidoyl)-2,3-dihydroxy-10,13-dimethyl-1,2,3,4,5,9,11,12,14,15,16,17-dodecahydrocyclopenta[a]phenanthren-6-one] | < 70
10 | COCC(=O)N(C1CC1)C(C)[C@H]1CC[C@@]2(O)C3=CC(=O)[C@@H]4C[C@@H](O)[C@@H](O)C[C@]4(C)C3CC[C@]12C (stereo partly drawn) [Compound 54, N-cyclopropyl-2-methoxy-N-[1-[(2S,3R,5R,10R,13R,14S,17S)-2,3,14-trihydroxy-10,13-dimethyl-6-oxo-2,3,4,5,9,11,12,15,16,17-decahydro-1H-cyclopenta[a]phenanthren-17-yl]ethyl]acetacetamide] | < 70
11 | C[C@@H]1CN(CC(=O)[C@H]2CC[C@@]3(O)C4=CC(=O)[C@@H]5C[C@@H](O)[C@@H](O)C[C@]5(C)C4CC[C@]23C)C[C@H](C)O1 (stereo partly drawn) [Compound 83, (2S,3R,5R,10R,13R,14S,17S)-17-[2-[(2S,6R)-2,6-dimethylmorpholin-4-yl]acetyl]-2,3,14-trihydroxy-10,13-dimethyl-2,3,4,5,9,11,12,15,16,17-decahydro-1H-cyclopenta[a]phenanthren-6-one] | 71 to 85
12 | COC(CN(C)CC(=O)[C@H]1CC[C@@]2(O)C3=CC(=O)[C@@H]4C[C@@H](O)[C@@H](O)C[C@]4(C)C3CC[C@]12C)OC (stereo partly drawn) [Compound 85, (2S,3R,5R,10R,13R,14S,17S)-17-[2-(2,2-dimethoxyethyl(methyl)amino)acetyl]-2,3,14-trihydroxy-10,13-dimethyl-2,3,4,5,9,11,12,15,16,17-decahydro-1H-cyclopenta[a]phenanthren-6-one] | 71 to 85
13 | CC([C@H]1CC[C@@]2(O)C3=CC(=O)[C@@H]4C[C@@H](O)[C@@H](O)C[C@]4(C)C3CC[C@]12C)N(CC(F)F)C(=O)C1CC1 (stereo partly drawn) [Compound 68, N-(2,2-difluoroethyl)-N-[1-[(2S,3R,5R,10R,13R,14S,17S)-2,3,14-trihydroxy-10,13-dimethyl-6-oxo-2,3,4,5,9,11,12,15,16,17-decahydro-1H-cyclopenta[a]phenanthren-17-yl]ethyl]cyclopropanecarboxamide] | < 70
14 | COC(CN(C(=O)c1cccs1)C(C)[C@H]1CC[C@@]2(O)C3=CC(=O)[C@@H]4C[C@@H](O)[C@@H](O)C[C@]4(C)C3CC[C@]12C)OC (stereo partly drawn) [Compound 64, N-(2,2-dimethoxyethyl)-N-[1-[(2S,3R,5R,10R,13R,14S,17S)-2,3,14-trihydroxy-10,13-dimethyl-6-oxo-2,3,4,5,9,11,12,15,16,17-decahydro-1H-cyclopenta[a]phenanthren-17-yl]ethyl]thiophene-2-carboxamide] | < 70
15 | C/C(=N/OCCN1CCCC1)[C@H]1CC[C@@]2(O)C3=CC(=O)[C@@H]4C[C@@H](O)[C@@H](O)C[C@]4(C)C3CC[C@]12C (stereo partly drawn) [Compound 36, (2S,3R,5R,10R,13R,14S,17S)-2,3,14-trihydroxy-10,13-dimethyl-17-(C-methyl-N-(2-pyrrolidin-1-ylethoxy)carbonimidoyl)-2,3,4,5,9,11,12,15,16,17-decahydro-1H-cyclopenta[a]phenanthren-6-one] | 71 to 85
